Test results taken from patent US20050009787A1, “Micronutrient phosphates as dietary and health supplements” (priority 2001, published 2005).
One block for each molecule: values may come before it.

Assays:
[1] = cited from earlier work
[2] = Bioavailability of tocopheryl phosphate in rats (tocopheryl phosphate in liver, ES/MS); type: in vivo, male Sprague-Dawley rats; details: rat
Protocol: The rats were dosed using the following protocol: • (a) A single dose of the compound was administered to male Sprague-Dawley rats (see Table 1). Oral gavage was with an 18 g gavage needle and 1 ml syringe. Intravenous was with a 26 g hypodermic needle and 1 ml syringe. • (b) Twenty four hours after administrations, the rats were anaesthetized with 60 mg/kg of Nembutal (an anaesthetic from Meril, USA) by intra peritoneal injection. • (c) Once the rats were under deep anaesthesia, a sample of blood was taken from the tail vein, and the femoral vein was exposed and injected with 500 units of heparin. The abdominal cavity was opened and the rat perfused with saline. The liver, heart, epidydimal fat pad, hind-leg muscle and brain was removed and frozen in liquid nitrogen.
The livers were extracted according to the following method: • (a) Homogenise 1 g of liver in 10 ml dichloromethane. • (b) Add 0.1 mg of ditocopheryl phosphate (1 mg/ml in 50% tetrahydrofuran) as an internal standard. • (c) Mix using homogeniser and centrifuge sample. • (d) Remove and evaporate dichloromethane. • (e) Add 9 ml of KOH (2M) and stir for one hour at room temperature. • (f) Add 10 ml hexane, shake and remove hexane (upper) layer. • (g) Add 10 ml HCl (2M) to the 9 ml KOH (2M) solution. • (h) Add 10 ml hexane, shake and remove hexane layer. • (i) Evaporate hexane layer to dryness.
The extracts were analysed and quantitated for TP (μg) content by electrospray mass spectrometry using the established calibration curve (tocopheryl phosphate vs ditocopheryl phosphate).
ES/MS analysis conditions: Sample was dissolved in 1 ml tetrahydrofuran (THF) containing 1% ammonia, 20 μl was injected into the sample loop. The sample was eluted with THF:water (9:1) 20 μl/min. Mass spectrometric analysis was conducted in negative ion mode with cone voltage of 40V using Micromass Platform.

[3] = Stability of tocopheryl phosphate arginine complex in a beverage (pH, turbidity, degradation); type: physicochemical
Protocol: Four ml was added to each 500 ml bottle using sterile conditions. Three treatment groups were used for each drink: 4° C., 37° C. and room temperature (RT). The drinks were monitored for bacterial growth and contamination on a weekly basis, both visually, and by plating a sample onto LB agar plates, which were grown for 48 hours at 37° C.

Molecule: COC1=C(OC)C(=O)C(C/C=C(\C)CC/C=C(\C)CC/C=C(\C)CC/C=C(\C)CC/C=C(\C)CC/C=C(\C)CC/C=C(\C)CC/C=C(\C)CC/C=C(\C)CCC=C(C)C)=C(C)C1=O [CoQ10, ubiquinone]
destruction of CoQ10 by boiling ([1]; boiling): no detectable destruction
destruction of CoQ10 by frying ([1]; frying): 14-32%

amount of tocopheryl phosphate present compared to the controls ([2]; oral administration): did not result in a significant increase
Molecule: CC(=O)Oc1c(C)c(C)c2c(c1C)CCC(C)(CCC[C@H](C)CCC[C@H](C)CCCC(C)C)O2 (some centres unmarked) [Tocopheryl acetate, reference compound]

amount of tocopheryl phosphate detected in the livers ([2]; enteric coating preparation or oral solution): increase
amount of tocopheryl phosphate present in the liver after 24 hours ([2]; intravenous administration, vs controls): significant increase
Tocopheryl phosphate in liver ([2]; intravenous, 10 mg/kg single dose, 24 h after administration): 24.0 µg/g
Tocopheryl phosphate in liver ([2]; intravenous, 30 mg/kg single dose, 24 h): 28.0 µg/g
Tocopheryl phosphate in liver ([2]; oral (enteric coated), 30 mg/kg single dose, 24 h): 19.3 µg/g
Tocopheryl phosphate in liver ([2]; oral, 10 mg/kg single dose, 24 h): 19.2 µg/g
Tocopheryl phosphate in liver ([2]; oral, 30 mg/kg single dose, 24 h): 18.4 µg/g
Molecule: Tocopheryl phosphate

Molecule: tocopheryl phosphate arginine complex
Turbidity ([3]; blue Musashi drink with TP, 4° C.): 12.54 NTU
Turbidity ([3]; blue Musashi drink with TP, 37° C.): 28.55 NTU
Turbidity ([3]; blue Musashi drink with TP, RT): 24.05 NTU
amount of degradation of the complex ([3]; in acidic drinks, at the pH required for biological stability): negligible
Turbidity ([3]; orange Musashi drink with TP, 4° C.): 232.0 NTU
Turbidity ([3]; orange Musashi drink with TP, 37° C.): 220.0 NTU
Turbidity ([3]; orange Musashi drink with TP, RT): 224.0 NTU
